ChEMBL document CHEMBL1201861, “Genomics of Drug Sensitity in Cancer screening data, Wellcome Trust Sanger Institute”

What was measured:
Experiment in all cases: cells
[1] = test system: DU-4475; format: functional, cell-based, Homo sapiens; conditions: Homo sapiens, DU-4475
Description: SANGER: Inhibition of human DU-4475 cell growth in a cell viability assay.

[2] = test system: CW-2; format: functional, cell-based, Homo sapiens; conditions: Homo sapiens, CW-2;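 also: growth inhibition of CW-2 cells, read out by a cell viability assay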
Description: SANGER: Inhibition of human CW-2 cell growth in a cell viability assay.

[3] = test system: NCI-H23; format: functional, cell-based, Homo sapiens; conditions: Homo sapiens, NCI-H23;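 also: cell viability assay measuring growth inhibition of NCI-H23 cells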
Description: SANGER: Inhibition of human NCI-H23 cell growth in a cell viability assay.

[4] = test system: HCC2157; format: functional, cell-based, Homo sapiens; conditions: Homo sapiens, HCC2157;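 also: growth inhibition of the cancer cell line, read out as cell viability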
Description: SANGER: Inhibition of human HCC2157 cell growth in a cell viability assay.

[5] = test system: MZ1-PC; format: functional, cell-based, Homo sapiens; conditions: Homo sapiens, MZ1-PC;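 also: cell viability assay measuring growth inhibition of human MZ1-PC cells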
[6] = test system: COLO-824; format: functional, cell-based, Homo sapiens; conditions: Homo sapiens, COLO-824
Description: SANGER: Inhibition of human COLO-824 cell growth in a cell viability assay.

[7] = test system: COLO-800; format: functional, cell-based, Homo sapiens; conditions: Homo sapiens, COLO-800;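 also: growth inhibition of COLO-800 cells, read out with a cell viability assay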
Description: SANGER: Inhibition of human COLO-800 cell growth in a cell viability assay.

[8] = test system: SNU-5; format: functional, cell-based, Homo sapiens; conditions: Homo sapiens, SNU-5;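 also: cell viability readout used to measure growth inhibition in human NCI-SNU-5 cells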
Description: SANGER: Inhibition of human NCI-SNU-5 cell growth in a cell viability assay.

[9] = test system: TE-12; format: functional, cell-based, Homo sapiens; conditions: Homo sapiens, TE-12;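 also: growth inhibition of TE-12 cells, read out by a cell viability assay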
Description: SANGER: Inhibition of human TE-12 cell growth in a cell viability assay.

[10] = test system: HDLM-2; format: functional, cell-based, Homo sapiens; conditions: Homo sapiens, HDLM-2;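 also: cell viability assay measuring suppression of HDLM-2 proliferation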
Description: SANGER: Inhibition of human HDLM-2 cell growth in a cell viability assay.

[11] = test system: Calu-6; format: functional, cell-based, Homo sapiens; conditions: Homo sapiens, Calu-6;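 also: growth of human Calu-6 cells, read out by a cell viability assay, IC50 marking inhibition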
Description: SANGER: Inhibition of human Calu-6 cell growth in a cell viability assay.

[12] = test system: MC116; format: functional, cell-based, Homo sapiens; conditions: Homo sapiens, MC116;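 also: growth inhibition of MC116 cells, read out with a cell viability assay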
Description: SANGER: Inhibition of human MC116 cell growth in a cell viability assay.

[13] = test system: BB30-HNC; format: functional, cell-based, Homo sapiens; conditions: Homo sapiens, BB30-HNC;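 also: growth inhibition of the cultured cell line, read out by a cell viability assay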
Description: SANGER: Inhibition of human BB30-HNC cell growth in a cell viability assay.

[14] = test system: TE-10; format: functional, cell-based, Homo sapiens; conditions: Homo sapiens, TE-10;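 also: growth inhibition of TE-10 cells, measured by a cell viability assay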
Description: SANGER: Inhibition of human TE-10 cell growth in a cell viability assay.

[15] = test system: Lu-65; format: functional, cell-based, Homo sapiens; conditions: Homo sapiens, Lu-65;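 also: growth inhibition of Lu-65 cancer cells, read out by a cell viability assay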
Description: SANGER: Inhibition of human LU-65 cell growth in a cell viability assay.

[16] = test system: RXF 393; format: functional, cell-based, Homo sapiens; conditions: Homo sapiens, RXF 393;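 also: growth inhibition of human RXF 393 cells, read out with a cell viability assay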
Description: SANGER: Inhibition of human RXF393 cell growth in a cell viability assay.

[17] = test system: NB10; format: functional, cell-based, Homo sapiens; conditions: Homo sapiens, NB10;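 also: growth inhibition of NB10 cells, read out by a cell viability assay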
Description: SANGER: Inhibition of human NB10 cell growth in a cell viability assay.

[18] = test system: NTERA-2-cl-D1; format: functional, cell-based, Homo sapiens; conditions: Homo sapiens, NTERA-2-cl-D1;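 also: inhibition of cell growth, measured with a cell viability assay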
Description: SANGER: Inhibition of human NTERA-S-cl-D1 cell growth in a cell viability assay.

[19] = test system: NCI-H1770; format: functional, cell-based, Homo sapiens; conditions: Homo sapiens, NCI-H1770;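 also: growth inhibition of NCI-H1770 cells determined with a viability readout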
Description: SANGER: Inhibition of human NCI-H1770 cell growth in a cell viability assay.

[20] = test system: EKVX; format: functional, cell-based, Homo sapiens; conditions: Homo sapiens, EKVX;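 also: growth inhibition of human EKVX cells, read out with a cell viability assay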
Description: SANGER: Inhibition of human EKVX cell growth in a cell viability assay.

[21] = test system: HCC1187; format: functional, cell-based, Homo sapiens; conditions: Homo sapiens, HCC1187;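 also: growth inhibition of HCC1187 cells, read out with a cell viability assay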
Description: SANGER: Inhibition of human HCC1187 cell growth in a cell viability assay.

[22] = test system: EM-2; format: functional, cell-based, Homo sapiens; conditions: Homo sapiens, EM-2;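 also: growth inhibition of EM-2 cells, read out with a cell viability assay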
Description: SANGER: Inhibition of human EM-2 cell growth in a cell viability assay.

[23] = test system: SF-539; format: functional, cell-based, Homo sapiens; conditions: Homo sapiens, SF-539;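 also: Read-out is a cell viability assay, with IC50 reflecting inhibition of cell growth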
Description: SANGER: Inhibition of human SF539 cell growth in a cell viability assay.

[24] = test system: TE-5; format: functional, cell-based, Homo sapiens; conditions: Homo sapiens, TE-5;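 also: inhibition of cell growth, read out by a cell viability assay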
Description: SANGER: Inhibition of human TE-5 cell growth in a cell viability assay.

[25] = test system: JVM-2; format: functional, cell-based, Homo sapiens; conditions: Homo sapiens, JVM-2;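 also: growth inhibition of JVM-2 cells determined by a cell viability assay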
Description: SANGER: Inhibition of human JVM-2 cell growth in a cell viability assay.

[26] = test system: ES5; format: functional, cell-based, Homo sapiens; conditions: Homo sapiens, ES5;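 also: growth inhibition of human ES5 cells, read out by a cell viability assay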
Description: SANGER: Inhibition of human ES5 cell growth in a cell viability assay.

[27] = test system: KARPAS-299; format: functional, cell-based, Homo sapiens; conditions: Homo sapiens, KARPAS-299
Description: SANGER: Inhibition of human KARPAS-299 cell growth in a cell viability assay.

[28] = test system: TE-8; format: functional, cell-based, Homo sapiens; conditions: Homo sapiens, TE-8;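 also: growth inhibition of TE-8 cells, measured with a cell viability readout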
Description: SANGER: Inhibition of human TE-8 cell growth in a cell viability assay.

[29] = test system: HT-144; format: functional, cell-based, Homo sapiens; conditions: Homo sapiens, HT-144
[30] = test system: P30-OHK; format: functional, cell-based, Homo sapiens; conditions: Homo sapiens, P30-OHK;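 also: growth inhibition of the P30-OHK cell line, read out with a cell viability assay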
Description: SANGER: Inhibition of human P30-OHK cell growth in a cell viability assay.

[31] = test system: ACN; format: functional, cell-based, Homo sapiens; conditions: Homo sapiens, ACN;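 also: growth inhibition of the human ACN cell line, read out via cell viability testing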
Description: SANGER: Inhibition of human ACN cell growth in a cell viability assay.

[32] = test system: A3-KAW; format: functional, cell-based, Homo sapiens; conditions: Homo sapiens, A3-KAW;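 also: growth inhibition of human A3-KAW cells, read out with a cell viability assay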
Description: SANGER: Inhibition of human A3-KAW cell growth in a cell viability assay.

[33] = test system: SCH; format: functional, cell-based, Homo sapiens; conditions: Homo sapiens, SCH;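 also: growth inhibition of human SCH cells, read out in a cell viability assay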
Description: SANGER: Inhibition of human SCH cell growth in a cell viability assay.

[34] = test system: LB831-BLC; format: functional, cell-based, Homo sapiens; conditions: Homo sapiens, LB831-BLC;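 also: growth inhibition of LB831-BLC cells, read out with a cell viability assay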
Description: SANGER: Inhibition of human LB831-BLC cell growth in a cell viability assay.

[35] = test system: SK-PN-DW; format: functional, cell-based, Homo sapiens; conditions: Homo sapiens, SK-PN-DW;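 also: growth inhibition measured with a viability assay on these cells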
[36] = test system: ES6; format: functional, cell-based; conditions: Homo sapiens;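 also: growth inhibition of human ES6 cells, read out with a cell viability assay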
Description: SANGER: Inhibition of human ES6 cell growth in a cell viability assay.

[37] = test system: MOLT-4; format: functional, cell-based, Homo sapiens; conditions: Homo sapiens, MOLT-4;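 also: growth inhibition of MOLT-4 cells, determined with a cell viability readout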
Description: SANGER: Inhibition of human MOLT-4 cell growth in a cell viability assay.

[38] = test system: NCI-H747; format: functional, cell-based, Homo sapiens; conditions: Homo sapiens, NCI-H747;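 also: growth inhibition of human NCI-H747 cells, read out by a cell viability assay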
Description: SANGER: Inhibition of human NCI-H747 cell growth in a cell viability assay.

[39] = test system: D-247MG; format: functional, cell-based; conditions: Homo sapiens
Description: SANGER: Inhibition of human D-247MG cell growth in a cell viability assay.

[40] = test system: LS-123; format: functional, cell-based, Homo sapiens; conditions: Homo sapiens, LS-123
[41] = test system: ES4; format: functional, cell-based, Homo sapiens; conditions: Homo sapiens, ES4;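 also: growth inhibition of human ES4 cells, read out by a cell viability assay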
[42] = test system: QIMR-WIL; format: functional, cell-based, Homo sapiens; conditions: Homo sapiens, QIMR-WIL;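 also: growth inhibition of QIMR-WIL cells, read out with a cell viability assay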
Description: SANGER: Inhibition of human QIMR-WIL cell growth in a cell viability assay.

[43] = test system: DOHH-2; format: functional, cell-based, Homo sapiens; conditions: Homo sapiens, DOHH-2;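 also: growth inhibition of human DOHH-2 cells, read out with a cell viability assay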
Description: SANGER: Inhibition of human DOHH-2 cell growth in a cell viability assay.

[44] = test system: LS-513; format: functional, cell-based, Homo sapiens; conditions: Homo sapiens, LS-513
Description: SANGER: Inhibition of human LS-513 cell growth in a cell viability assay.

[45] = test system: SK-LMS-1; format: functional, cell-based, Homo sapiens; conditions: Homo sapiens, SK-LMS-1;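 also: growth inhibition of human SK-LMS-1 cells, read out with a cell viability assay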
[46] = test system: GCIY; format: functional, cell-based, Homo sapiens; conditions: Homo sapiens, GCIY;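 also: growth inhibition of the human GCIY cell line, read out by a cell viability assay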
Description: SANGER: Inhibition of human GCIY cell growth in a cell viability assay.

[47] = test system: NCI-H2126; format: functional, cell-based, Homo sapiens; conditions: Homo sapiens, NCI-H2126;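 also: growth inhibition of the cancer cell line, determined with a cell viability readout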
Description: SANGER: Inhibition of human NCI-H2126 cell growth in a cell viability assay.

[48] = test system: SNB-75; format: functional, cell-based, Homo sapiens; conditions: Homo sapiens, SNB-75;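 also: cell viability assay measuring growth inhibition of human SNB-75 cells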
Description: SANGER: Inhibition of human SNB75 cell growth in a cell viability assay.

[49] = test system: NCI-H82; format: functional, cell-based, Homo sapiens; conditions: Homo sapiens, NCI-H82;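 also: growth inhibition of NCI-H82 cells, measured with a cell viability readout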
Description: SANGER: Inhibition of human NCI-H82 cell growth in a cell viability assay.

[50] = test system: TE-11; format: functional, cell-based; conditions: Homo sapiens;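 also: growth inhibition of human TE-11 cells, read out by a cell viability assay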
Description: SANGER: Inhibition of human TE-11 cell growth in a cell viability assay.

CC(C)C[C@H](NC(=O)[C@H](Cc1ccccc1)NC(=O)c1cnccn1)B(O)O [BORTEZOMIB]
IC50 [1]: 1.36 nM | IC50 [2]: 3.21 nM | IC50 [3]: 12.1 nM | IC50 [4]: > 20 nM | IC50 [5]: 3.54 nM | IC50 [6]: > 20 nM | IC50 [7]: 17.6 nM | IC50 [8]: 5.17 nM | IC50 [9]: 4.25 nM | IC50 [10]: > 20 nM | IC50 [11]: 1.29 nM | IC50 [12]: > 20 nM | IC50 [13]: 0.335 nM | IC50 [14]: 1.03 nM | IC50 [15]: 5.84 nM | IC50 [16]: 0.914 nM | IC50 [17]: 2.32 nM | IC50 [18]: 0.243 nM | IC50 [19]: > 20 nM | IC50 [20]: 2.14 nM | IC50 [21]: 3.54 nM | IC50 [22]: 1.16 nM | IC50 [23]: > 20 nM | IC50 [24]: 0.865 nM | IC50 [25]: 7.28 nM | IC50 [26]: 10.4 nM | IC50 [27]: 3.06 nM | IC50 [28]: 1.19 nM | IC50 [29]: 0.576 nM | IC50 [30]: > 20 nM | IC50 [31]: 0.417 nM | IC50 [32]: 1.28 nM | IC50 [33]: > 20 nM | IC50 [34]: 0.641 nM | IC50 [35]: 3.14 nM | IC50 [36]: < 0.0781 nM | IC50 [37]: 2.13 nM | IC50 [38]: 0.539 nM | IC50 [39]: 0.413 nM | IC50 [40]: 2.02 nM | IC50 [41]: 2.16 nM | IC50 [42]: 0.889 nM | IC50 [43]: > 20 nM | IC50 [44]: 0.739 nM | IC50 [45]: 0.854 nM | IC50 [46]: 1.62 nM | IC50 [47]: 1.8 nM | IC50 [48]: 0.912 nM | IC50 [49]: > 20 nM

C[C@@H](Oc1cc(-c2cnn(C3CCNCC3)c2)cnc1N)c1c(Cl)ccc(F)c1Cl [CRIZOTINIB]
IC50 [1]: > 2000 nM | IC50 [2]: > 2000 nM | IC50 [3]: > 2000 nM | IC50 [4]: > 2000 nM | IC50 [5]: > 2000 nM | IC50 [6]: > 2000 nM | IC50 [7]: > 2000 nM | IC50 [8]: 106 nM | IC50 [9]: > 2000 nM | IC50 [10]: > 2000 nM | IC50 [11]: > 2000 nM | IC50 [12]: > 2000 nM | IC50 [13]: > 2000 nM | IC50 [14]: > 2000 nM | IC50 [15]: > 2000 nM | IC50 [16]: > 2000 nM | IC50 [17]: > 2000 nM | IC50 [18]: > 2000 nM | IC50 [19]: > 2000 nM | IC50 [20]: > 2000 nM | IC50 [21]: > 2000 nM | IC50 [22]: 601 nM | IC50 [23]: 204 nM | IC50 [50]: > 2000 nM | IC50 [24]: > 2000 nM | IC50 [25]: > 2000 nM | IC50 [26]: > 2000 nM | IC50 [27]: 1410 nM | IC50 [28]: > 2000 nM | IC50 [29]: > 2000 nM | IC50 [30]: > 2000 nM | IC50 [31]: > 2000 nM | IC50 [32]: > 2000 nM | IC50 [34]: > 2000 nM | IC50 [35]: > 2000 nM | IC50 [36]: > 2000 nM | IC50 [37]: > 2000 nM | IC50 [38]: > 2000 nM | IC50 [39]: > 2000 nM | IC50 [40]: > 2000 nM | IC50 [41]: > 2000 nM | IC50 [42]: > 2000 nM | IC50 [43]: > 2000 nM | IC50 [44]: > 2000 nM | IC50 [45]: 1770 nM | IC50 [46]: > 2000 nM | IC50 [47]: > 2000 nM | IC50 [48]: > 2000 nM | IC50 [49]: > 2000 nM

COc1cc(N2CCC(N3CCN(C)CC3)CC2)ccc1Nc1ncc(Cl)c(Nc2ccccc2S(=O)(=O)C(C)C)n1 [TAE-684]
IC50 [1]: 1460 nM | IC50 [2]: > 2000 nM | IC50 [3]: > 2000 nM | IC50 [4]: 1470 nM | IC50 [5]: 178 nM | IC50 [6]: > 2000 nM | IC50 [7]: 767 nM | IC50 [8]: > 2000 nM | IC50 [9]: 533 nM | IC50 [10]: > 2000 nM | IC50 [11]: > 2000 nM | IC50 [12]: > 2000 nM | IC50 [13]: 1130 nM | IC50 [14]: 715 nM | IC50 [15]: > 2000 nM | IC50 [16]: 558 nM | IC50 [17]: 1570 nM | IC50 [18]: 334 nM | IC50 [19]: > 2000 nM | IC50 [20]: > 2000 nM | IC50 [21]: 1860 nM | IC50 [22]: 1850 nM | IC50 [23]: < 7.81 nM | IC50 [50]: 161 nM | IC50 [24]: > 2000 nM | IC50 [25]: > 2000 nM | IC50 [26]: > 2000 nM | IC50 [27]: 23.8 nM | IC50 [28]: 429 nM | IC50 [29]: 1630 nM | IC50 [30]: > 2000 nM | IC50 [31]: > 2000 nM | IC50 [32]: > 2000 nM | IC50 [34]: 550 nM | IC50 [35]: 1260 nM | IC50 [36]: 776 nM | IC50 [37]: > 2000 nM | IC50 [38]: 499 nM | IC50 [39]: > 2000 nM | IC50 [40]: 1520 nM | IC50 [41]: 491 nM | IC50 [42]: > 2000 nM | IC50 [43]: 312 nM | IC50 [44]: > 2000 nM | IC50 [45]: 1160 nM | IC50 [46]: 955 nM | IC50 [47]: > 2000 nM | IC50 [48]: > 2000 nM | IC50 [49]: > 2000 nM
